Legend:
human SP-A = target: T1, human SP-A (Homo sapiens, UniProt Q8IWL1+Q8IWL2); experiment: Binding of LL-37 to SP-A by intrinsic tryptophan fluorescence titration
T1 construct: Human SP-A was isolated from bronchoalveolar lavage fluid of patients with alveolar proteinosis; from tissue; host or cells: bronchoalveolar lavage fluid of patients with alveolar proteinosis
Description: (§1) Fluorescence measurements were carried out in 5 x 5 quartz cuvettes using an SLM-Aminco AB-2 spectrofluorimeter equipped with a thermostated cuvette holder (± 0.1°C; Spectronic, Waltham, MA, USA). The slit widths were 4 nm for the excitation and emission beams. The tryptophan fluorescence emission spectrum of SP-A and rfhSP-A was recorded from 305 to 400 nm on excitation at 295 nm at 25°C in 5 mM Tris HCl buffer (pH 7.4), with or without 150 mM NaCl. Subsequently, the titration experiment was started by adding increasing amounts of LL-37 to the protein solution in the cuvette. The fluorescence intensity readings were corrected for the dilution caused by LL-37 addition.
(§2) The change in the fluorescence of SP-A (or rfhSP-A) at the emission wavelength maximum was monitored as a function of LL-37 concentration, and the titration data were analyzed by nonlinear least squares fitting to the Hill equation, as previously reported ([24], [35], [36]):
(§3) (1) ΔF/ΔFmax=[L]^nH/([L]^nH+KD)
(§4) where ΔF is the change in fluorescence intensity at 337 nm relative to the intensity of free SP-A (for free rfhSP-A, the emission wavelength maximum was 342 nm); ΔFmax is the change in fluorescence intensity at saturating LL-37 concentrations; KD is the apparent equilibrium dissociation constant; [L] is the molar concentration of free LL-37; and nH is the Hill coefficient.

[1] = target: T2, rfhSP-A (recombinant trimeric fragment of human SP-A) (Homo sapiens, UniProt Q8IWL2); experiment: Binding of LL-37 to rfhSP-A by intrinsic tryptophan fluorescence titration
T2 construct: including the globular carbohydrate recognition domain (CRD), neck, and 8 x Gly-Xaa-Yaa repeats of the collagen stalk; His6 (N, cleaved yes); NT* solubility tag (spider silk) with coxsackievirus 3C protease site (N, cleaved yes); made in house; host or cells: Escherichia coli BL21 (DE3)
T2 sequence (Q8IWL2 77-248 limits assumed): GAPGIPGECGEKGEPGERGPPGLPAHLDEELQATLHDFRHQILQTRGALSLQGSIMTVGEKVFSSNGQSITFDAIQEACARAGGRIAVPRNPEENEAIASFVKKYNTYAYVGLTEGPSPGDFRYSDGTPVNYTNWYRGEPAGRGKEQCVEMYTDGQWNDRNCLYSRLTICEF
Description: as §1, §2, §3, §4

A549 cells [2] = assay type: cell-based, human; settings: LL-37 2.5 µM, SP-A 0.15 µM, rfhSP-A 0.88 µM, 30 min 37°C; complexes vs LL-37 alone p < 0.001
Description: (§5) Human cell lines of alveolar basal epithelium A549 (ATTC® CCL-185TM) and monocytes U937 (ATTC® CRL-1593.2TM) were incubated in RPMI 1640 supplemented with 10% (v/v) heat-inactivated fetal bovine serum (FBS), antibiotics (100 U/ml penicillin and 100 μg/ml streptomycin), and 2 mM L-glutamine (BioWhittacker).
(§6) Incorporation of Sytox Green in A549 cells was analyzed by confocal microscopy and flow cytometry analysis.
For confocal microscopy analysis, cells were seeded to a density of 30,000 cells per well in a 24-well tissue culture plate for 18 h in RPMI 1640 tissue culture medium supplemented with 100 U/ml penicillin, 100 μg/ml streptomycin, 2 mM L-glutamine, and with 5% FBS. The following day, Sytox Green (1 µM, final concentration) was added to the wells 10 minutes before the addition of 2.5 µM (11.25 µg/ml) LL-37 and/or 0.15 µM (100 µg/ml) SP-A or 0.88 µM (50 µg/ml) rfhSP-A for an additional 30 minutes. At the end of the incubation, fluorescence and differential interference contrast micrographs were taken under an Olympus FV1200 confocal system. Quantification of permeabilized cells (Sytox Green+) per cell number was performed using Image J software on each of 12 micrographs per treatment and experiment.

A549 cells [3] = assay type: cell-based, human; settings: LL-37 2.5 µM, SP-A 0.15 µM, rfhSP-A 0.88 µM, 15-60 min 37°C; complexes vs LL-37 alone p < 0.001
Description: as §5, §6
(§7) For flow cytometry analysis, A549 cells were grown in RPMI 1640 medium supplemented with antibiotics, 2 mM L-glutamine, and 10% FBS. […] A-438079 stock was resuspended in DMSO to a final concentration of 30 mM and aliquots were stored at 4°C. Cell fluorescence was analyzed after 15, 30 and 60 minutes in a Becton-Dickinson FACS Calibur cytometer, using Cell Quest software.

A549 cells [4] = experiment: Propidium iodide uptake, A549; assay type: cell-based, human; settings: LL-37 2.5 µM, SP-A 0.15 µM, rfhSP-A 0.88 µM, 15-60 min, 37°C, flow cytometry
Description: as §5
(§8) The incorporation of PI in A549 and U937 cell lines was analyzed by flow cytometry. Cells were cultured 18 h in RPMI 1640 medium supplemented with antibiotics, 2 mM L-glutamine, and 10% FBS. Then, cells were harvested and incubated in PBS with 10 µg/ml PI in the presence or absence of 2.5 µM LL-37, 0.15 µM SP-A or 0.88 µM rfhSP-A, and combinations thereof. A549 were incubated at 500,000 cells/ml density and U937 at 1,000,000 cells/ml. PI incorporation was measured after 15, 30, 45 and 60 minutes by flow cytometry. In some experiments, cells were pre-treated with 1 or 10 µM A-438079 or vehicle (DMSO).

U937 cells = experiment: Propidium iodide uptake, U937; assay type: cell-based, human; settings: LL-37 2.5 µM, SP-A 0.15 µM, rfhSP-A 0.88 µM, 15-60 min, 37°C, flow cytometry
Description: as §5, §8

[5] = tested on: P2X7 channels, A549 pneumocytes; assay type: cell-based, human; settings: A-438079 10 µM, 15 min pre-treatment; LL-37 2.5 µM, SP-A 0.15 µM, rfhSP-A 0.88 µM, 1 hour
Description: as §7, §8

[6] = tested on: P2X7 channels, U937 monocytes; assay type: cell-based, human; settings: A-438079 10 µM, 15 min pre-treatment; LL-37 2.5 µM, SP-A 0.15 µM, rfhSP-A 0.88 µM, 1 hour
Description: as §7, §8

T1 sequence (Q8IWL2 21-248): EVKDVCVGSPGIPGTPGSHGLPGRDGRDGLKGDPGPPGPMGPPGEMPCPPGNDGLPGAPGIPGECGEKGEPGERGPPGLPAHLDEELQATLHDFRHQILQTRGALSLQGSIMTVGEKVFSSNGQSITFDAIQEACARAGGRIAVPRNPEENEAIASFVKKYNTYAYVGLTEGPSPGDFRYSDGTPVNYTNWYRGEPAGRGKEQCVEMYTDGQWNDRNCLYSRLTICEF
T1 sequence (Q8IWL1 21-248): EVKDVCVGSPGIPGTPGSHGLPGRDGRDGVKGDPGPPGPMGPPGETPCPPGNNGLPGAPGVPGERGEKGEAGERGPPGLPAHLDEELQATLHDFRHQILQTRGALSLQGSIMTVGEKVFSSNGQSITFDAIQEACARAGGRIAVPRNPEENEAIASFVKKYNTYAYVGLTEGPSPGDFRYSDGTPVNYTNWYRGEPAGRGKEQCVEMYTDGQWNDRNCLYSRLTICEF

What does the source list for CC[C@H](C)[C@H](NC(=O)[C@H](CCCCN)NC(=O)[C@H](CCC(=O)O)NC(=O)[C@H](CCCCN)NC(=O)[C@H](CO)NC(=O)[C@H](CCCCN)NC(=O)[C@H](CCCNC(=N)N)NC(=O)[C@H](Cc1ccccc1)NC(=O)[C@H](Cc1ccccc1)NC(=O)[C@H](CC(=O)O)NC(=O)CNC(=O)[C@H](CC(C)C)NC(=O)[C@@H](N)CC(C)C)C(=O)NCC(=O)N[C@@H](CCCCN)C(=O)N[C@@H](CCC(=O)O)C(=O)N[C@@H](Cc1ccccc1)C(=O)N[C@@H](CCCCN)C(=O)N[C@@H](CCCNC(=N)N)C(=O)N[C@H](C(=O)N[C@H](C(=O)N[C@@H](CCC(N)=O)C(=O)N[C@@H](CCCNC(=N)N)C(=O)N[C@H](C(=O)N[C@@H](CCCCN)C(=O)N[C@@H](CC(=O)O)C(=O)N[C@@H](Cc1ccccc1)C(=O)N[C@@H](CC(C)C)C(=O)N[C@@H](CCCNC(=N)N)C(=O)N[C@@H](CC(N)=O)C(=O)N[C@@H](CC(C)C)C(=O)N[C@H](C(=O)N1CCC[C@H]1C(=O)N[C@@H](CCCNC(=N)N)C(=O)N[C@H](C(=O)N[C@@H](CCC(=O)O)C(=O)N[C@@H](CO)C(=O)O)[C@@H](C)O)C(C)C)[C@@H](C)CC)C(C)C)[C@@H](C)CC [LL-37]?
Kd (human SP-A): 0.45 ± 0.01 nM; Kd [1]: 1.2 ± 0.7 nM; Sytox Green incorporation, A549, confocal (A549 cells [2]): induced Sytox Green incorporation in human pneumocytes; Sytox Green incorporation, A549, flow cytometry (A549 cells [3]): induced Sytox Green incorporation in human pneumocytes; PI uptake, A549 pneumocytes (A549 cells [4]): induced significant PI incorporation into human cells as a function of time; PI uptake, U937 monocytes (U937 cells): induced significant PI incorporation into human cells as a function of time; LL-37-induced dye uptake with / without P2X7 inhibitor, A549 [5]: partially mediated by activation of P2X7 channels; LL-37-induced dye uptake with / without P2X7 inhibitor, U937 [6]: partially mediated by activation of P2X7 channels

Source: publication PMC9464622, “The collectin SP-A and its trimeric recombinant fragment protect alveolar epithelial cells from the cytotoxic and proinflammatory effects of human cathelicidin in vitro” (Frontiers in Immunology, 2022)
